Where no end group is shown, it is not given here.

Data set [1] deals with T1, GPR125 (ADGRA3) (Homo sapiens, UniProt Q8IWK6).
T1 sequence (Q8IWK6 34-1321): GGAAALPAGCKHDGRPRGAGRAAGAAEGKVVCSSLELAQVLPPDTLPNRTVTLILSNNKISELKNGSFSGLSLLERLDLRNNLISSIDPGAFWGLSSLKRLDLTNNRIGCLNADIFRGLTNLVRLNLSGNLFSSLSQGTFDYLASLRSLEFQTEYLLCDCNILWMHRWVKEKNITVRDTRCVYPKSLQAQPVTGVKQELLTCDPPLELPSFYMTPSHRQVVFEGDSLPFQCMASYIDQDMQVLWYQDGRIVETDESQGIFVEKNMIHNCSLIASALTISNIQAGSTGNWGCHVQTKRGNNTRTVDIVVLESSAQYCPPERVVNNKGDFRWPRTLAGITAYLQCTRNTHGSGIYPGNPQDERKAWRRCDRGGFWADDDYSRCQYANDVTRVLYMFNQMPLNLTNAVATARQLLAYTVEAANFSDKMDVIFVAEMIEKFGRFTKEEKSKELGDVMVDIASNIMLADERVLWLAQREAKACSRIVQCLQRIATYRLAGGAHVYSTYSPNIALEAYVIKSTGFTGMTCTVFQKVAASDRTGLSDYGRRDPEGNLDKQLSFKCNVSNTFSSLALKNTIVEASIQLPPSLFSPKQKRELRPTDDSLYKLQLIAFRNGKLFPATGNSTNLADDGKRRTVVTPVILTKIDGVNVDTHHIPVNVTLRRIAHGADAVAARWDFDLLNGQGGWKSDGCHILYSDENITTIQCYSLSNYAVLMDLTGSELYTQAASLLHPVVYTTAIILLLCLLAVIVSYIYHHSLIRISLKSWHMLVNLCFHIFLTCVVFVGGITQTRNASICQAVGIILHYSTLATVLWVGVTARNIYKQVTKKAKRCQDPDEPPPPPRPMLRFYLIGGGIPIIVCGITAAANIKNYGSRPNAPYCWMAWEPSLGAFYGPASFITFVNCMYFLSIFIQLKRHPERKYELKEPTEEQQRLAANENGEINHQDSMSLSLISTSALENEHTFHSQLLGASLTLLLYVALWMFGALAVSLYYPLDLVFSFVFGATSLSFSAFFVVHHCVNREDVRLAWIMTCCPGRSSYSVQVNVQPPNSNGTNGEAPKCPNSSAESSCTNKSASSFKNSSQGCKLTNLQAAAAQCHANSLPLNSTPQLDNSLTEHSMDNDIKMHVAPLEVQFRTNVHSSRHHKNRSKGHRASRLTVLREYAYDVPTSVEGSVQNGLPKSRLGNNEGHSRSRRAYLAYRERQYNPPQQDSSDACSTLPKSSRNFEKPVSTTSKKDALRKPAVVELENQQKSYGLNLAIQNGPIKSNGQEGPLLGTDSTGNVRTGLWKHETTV
The experiment in a line: xCELLigence impedance, HEK293 Flp-In T-rex cells with full length GPR125. Details: HEK293 Flp-In T-rex cells stably transfected with full length (FL) GPR125; expressed in transfected cells; host or cells: HEK293 Flp-In T-rex cells. Conditions: HEK293 Flp-In T-rex cells stably transfected with full length (FL) GPR125, first 30 minutes after stimulation. The data set is classed as cell-based. Here is the method:
(§1) Once the cells are added to the E-plate they are allowed to adhere and proliferate for 18 hours during which the impedance is measured every 15 minutes generating the initial adhesion and growth curve. Upon stimulation the measurements are change to rapid detection every 15 seconds followed by every minute and every 5 minutes during the first hour after stimulation.

The target in data set [2] is T1, GPR125 (ADGRA3). As to the kind of experiment: xCELLigence impedance, MDA231 cells endogenously expressing GPR125. The data set is classed as cell-based. Conditions: first 30 minutes after stimulation. How it is done: as §1
Data set [3] concerns C57BL/6J mice. As to the kind of experiment: Acute food intake in lean mice, SH(2-11)-Exendin-4 (Example 12). The data set is classed as in vivo, mouse. Conditions: 15 nmol/kg s.c., conjugate also vs Exendin-4(1-39). How it is done:
Female C57BL/6J mice were purchased from Charles Rivers. One week before study initiation the mice were single housed with free access to food and water. […] Food intake was measured after 1, 2, 4 and 14 hours (FIG. 16A-D).

The test system of data set [4] is Diet induced obese C57BL/6NTac male mice. As to the kind of experiment: Acute food intake in diet induced obese mice, s.c. (Example 11). The data set is classed as in vivo, mouse. Conditions: 15 nmol/kg s.c., conjugate also vs GLP-1(7-36). How it is done: Diet induced obese C57BL/6NTac male mice were purchased from Taconic and continued on a high fat high sucrose diet with free access to water. One week after arrival, animals were double or single housed. […] Thirty minutes prior peptide injection, all mice were administered subcutaneously with DDP-4 inhibitor Valine-pyrrolidide (3 mg/mouse). Food intake was measured after 1, 2, 4 and 14 hours (FIG. 15A-D).

Data set [5] has as its system C57BL/6J mice. As to the kind of experiment: Acute food intake in lean mice, s.c. (Example 10). The data set is classed as in vivo, mouse. Here is the method: Female C57BL/6J mice were purchased from Charles Rivers. One week before study initiation the mice were single housed with free access to food and water. […] Thirty minutes prior peptide injection, all mice were administered subcutaneously with DDP-4 inhibitor Valine-pyrrolidide (1.5 mg/mouse). Food intake was measured after 1, 2, 4 and 14 hours (FIG. 14A-D).
Results shown are combined data from five studies with an identical study design as described above. Between each study mice had at least one week washout period.

The nature of data set [6]: Plasma and CSF concentrations after injection into vena cava (RIA GLP-1 assay). The format is in vivo. Conditions: rat, 10 min after i.v. injection. Here is the method:
Male Sprague Dawley rats were purchased from Charles Rivers. Animals were anesthetized by hypnorm/dormicum, and restrained in a stereotactic instrument. […] Blood samples were collected prior to the injection of test compounds and straight after CSF aspiration.
The assay buffer was 100 mM Tris buffer with pH 8.5 containing 1% (wt/vol) human serum albumin, 0.01 mM valine-pyrrolidide and 500 KIE aprotinin (final concentrations). […] Plasma and CSF concentrations were measured after dilution in assay buffer. Free and bound moieties were separated with plasma-coated charcoal.

For data set [7], the target named is T2, GPR125 (ADGRA3) in mouse choroid plexus (mouse, UniProt Q7TT36 28-1310).
T2 construct: whole, on cells
T2 sequence: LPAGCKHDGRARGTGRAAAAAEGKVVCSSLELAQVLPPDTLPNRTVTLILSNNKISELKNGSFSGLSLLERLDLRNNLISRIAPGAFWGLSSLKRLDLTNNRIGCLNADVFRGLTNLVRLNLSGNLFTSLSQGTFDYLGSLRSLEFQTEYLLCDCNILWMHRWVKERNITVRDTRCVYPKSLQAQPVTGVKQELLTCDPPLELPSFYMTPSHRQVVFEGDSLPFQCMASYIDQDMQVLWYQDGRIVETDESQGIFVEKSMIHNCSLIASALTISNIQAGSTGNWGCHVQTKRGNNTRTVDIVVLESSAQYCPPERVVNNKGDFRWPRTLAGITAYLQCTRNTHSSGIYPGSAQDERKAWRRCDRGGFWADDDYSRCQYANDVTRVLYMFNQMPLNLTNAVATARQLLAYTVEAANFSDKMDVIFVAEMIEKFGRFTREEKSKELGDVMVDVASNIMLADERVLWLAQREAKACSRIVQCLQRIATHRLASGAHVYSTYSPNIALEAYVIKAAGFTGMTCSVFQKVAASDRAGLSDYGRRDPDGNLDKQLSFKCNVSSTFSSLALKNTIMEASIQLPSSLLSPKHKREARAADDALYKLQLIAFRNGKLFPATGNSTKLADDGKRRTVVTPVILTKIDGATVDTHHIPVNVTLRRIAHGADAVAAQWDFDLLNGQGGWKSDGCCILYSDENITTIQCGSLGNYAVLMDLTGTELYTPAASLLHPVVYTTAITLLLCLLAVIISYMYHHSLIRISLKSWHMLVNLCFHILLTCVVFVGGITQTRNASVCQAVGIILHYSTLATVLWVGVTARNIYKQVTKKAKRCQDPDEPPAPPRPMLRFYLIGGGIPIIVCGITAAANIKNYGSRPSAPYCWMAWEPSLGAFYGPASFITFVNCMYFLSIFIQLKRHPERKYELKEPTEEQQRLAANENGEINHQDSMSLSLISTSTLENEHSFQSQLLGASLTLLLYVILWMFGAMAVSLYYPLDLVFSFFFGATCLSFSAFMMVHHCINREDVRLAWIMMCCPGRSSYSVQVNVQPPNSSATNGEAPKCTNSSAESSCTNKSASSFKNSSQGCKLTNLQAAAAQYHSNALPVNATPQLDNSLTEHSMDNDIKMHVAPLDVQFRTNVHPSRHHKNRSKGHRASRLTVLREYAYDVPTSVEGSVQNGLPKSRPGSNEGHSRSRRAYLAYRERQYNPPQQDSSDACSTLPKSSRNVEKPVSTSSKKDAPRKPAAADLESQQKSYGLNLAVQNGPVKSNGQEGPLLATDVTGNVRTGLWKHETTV
As to the kind of experiment: fluorescence microscopy of mouse brain cryosections, WT against GPR125 KO (KO stained only at 22 µM and 11 µM).

For “SH2-9: PAIQPPLY, MuV SH protein fragment (2-9) (Genotype G Genbank ID QFO38283.1 2-9)”, the “GPR125 signaling, area under the curve (AUC) of impedance” value (“GPR125 signaling, area under the curve” below) in data set [1] and in data set [2] was “affected GPR125 signaling” throughout.
Exendin-4 [Exendin-4(1-39)]: the “food intake compared to vehicle” value in data set [3] (after 1 hour) is given as “decreased food intake”; in data set [3] (after 2 hours), “decreased food intake”; in data set [3] (after 4 hours), “less significant”.
As for “SH1-9: MPAIQPPLY, MuV SH protein fragment (1-9) (Genotype G Genbank ID QFO38283.1 1-9)”, the “GPR125 signaling, area under the curve” value in data set [1] and in data set [2] was “affected GPR125 signaling” each time.
Turning to “SH1-57: whole mumps virus SH protein 1-57 (MPAIQPPLYLTFLLLILLYLIITLYVWIILTITYKTAVRHAALYQRSFFRWSFDHSL; Genotype G Genbank ID QFO38283.1 1-57; (1)..(57) Genotype G Genbank ID QFO38283.1 1-57)”, the “GPR125 signaling, area under the curve” value in data set [1] and in data set [2] was “affected GPR125 signaling” in each case.
On to `CC[C@H](C)[C@H](NC(=O)[C@H](Cc1ccccc1)NC(=O)[C@H](CCC(=O)O)NC(=O)[C@H](CCCCN)NC(=O)[C@H](C)NC(=O)[C@H](C)NC(=O)[C@H](CCC(N)=O)NC(=O)CNC(=O)[C@H](CCC(=O)O)NC(=O)[C@H](CC(C)C)NC(=O)[C@H](Cc1ccc(O)cc1)NC(=O)[C@H](CO)NC(=O)[C@H](CO)NC(=O)[C@@H](NC(=O)[C@H](CC(=O)O)NC(=O)[C@H](CO)NC(=O)[C@@H](NC(=O)[C@H](Cc1ccccc1)NC(=O)[C@@H](NC(=O)CNC(=O)[C@H](CCC(=O)O)NC(=O)[C@H](C)NC(=O)[C@@H](N)Cc1c[nH]cn1)[C@@H](C)O)[C@@H](C)O)C(C)C)C(=O)N[C@@H](C)C(=O)N[C@@H](Cc1c[nH]c2ccccc12)C(=O)N[C@@H](CC(C)C)C(=O)N[C@H](C(=O)N[C@@H](CCCCN)C(=O)NCC(=O)N[C@@H](CCCNC(=N)N)C(N)=O)C(C)C` [GLP-1(7-36), GLP-1 (7-36) amide, reference compound], for which the “food intake compared to vehicle” value in data set [4] (after 1 hour) is given as “decreased food intake”; in data set [4] (after 2 hours), “decreased food intake”; in data set [4] (after 4 hours), “not present”; in data set [5] (15 nmol/kg s.c., after 1 hour) it was “did not show a significant decrease”; in data set [5] (15 nmol/kg s.c., after 2 hours), “did not show a significant decrease”; in data set [5] (15 nmol/kg s.c., after 4 hours), “did not show a significant decrease”. In addition, the “food intake compared to vehicle” value in data set [5] (15 nmol/kg s.c., after 14 hours) is “did not show a significant decrease”; in data set [5] (30 nmol/kg s.c., after 1 hour), “decreased their food intake significantly”; in data set [5] (30 nmol/kg s.c., after 2 hours), “decreased their food intake significantly”; in data set [5] (30 nmol/kg s.c., after 4 hours), “less significant”. In addition, the “detectable in CSF by RIA GLP-1 assay” value in data set [6] is reported as “detectable”.

B1: TAMRA labelled SH-protein (SEQ ID NO: 129) (other)
chain: MPAIQPPLYLTFLLLILLYLIITLYVWIILTVTYKTAVRHAALYQRSFFHWSFDHSL
modifications: also: TAMRA labelled
notes: also called TAMRA-functionalized SH protein
As to B1, the binding result in data set [7] was “binds”.

The values are drawn from patent publication US20240216519A1, “SMALL HYDROPHOBIC PROTEIN DRUG CONJUGATES AND USES THEREOF” (priority 2021, published 2024).
